Experimental data taken from paper PMC10094617, “Iron(III) Complexes with Non-Steroidal Anti-Inflammatory Drugs: Structure, Antioxidant and Anticholinergic Activity, and Interaction with Biomolecules” (International Journal of Molecular Sciences, 2023).

How the values were obtained:
[1] = Solubility of the complexes; assay type: physicochemical
[2] = target: T1, electric eel acetylcholinesterase (eeAChE) (Electrophorus electricus, UniProt O42275); test: Inhibition of acetylcholinesterase (modified Ellman's method); assay type: biochemical; settings: 10^−3 M of the compound; pH 7.4, 37 °C
T1 construct: purchased J&K Scientific Co. (Beijing, China)
T1 sequence (O42275 24-633): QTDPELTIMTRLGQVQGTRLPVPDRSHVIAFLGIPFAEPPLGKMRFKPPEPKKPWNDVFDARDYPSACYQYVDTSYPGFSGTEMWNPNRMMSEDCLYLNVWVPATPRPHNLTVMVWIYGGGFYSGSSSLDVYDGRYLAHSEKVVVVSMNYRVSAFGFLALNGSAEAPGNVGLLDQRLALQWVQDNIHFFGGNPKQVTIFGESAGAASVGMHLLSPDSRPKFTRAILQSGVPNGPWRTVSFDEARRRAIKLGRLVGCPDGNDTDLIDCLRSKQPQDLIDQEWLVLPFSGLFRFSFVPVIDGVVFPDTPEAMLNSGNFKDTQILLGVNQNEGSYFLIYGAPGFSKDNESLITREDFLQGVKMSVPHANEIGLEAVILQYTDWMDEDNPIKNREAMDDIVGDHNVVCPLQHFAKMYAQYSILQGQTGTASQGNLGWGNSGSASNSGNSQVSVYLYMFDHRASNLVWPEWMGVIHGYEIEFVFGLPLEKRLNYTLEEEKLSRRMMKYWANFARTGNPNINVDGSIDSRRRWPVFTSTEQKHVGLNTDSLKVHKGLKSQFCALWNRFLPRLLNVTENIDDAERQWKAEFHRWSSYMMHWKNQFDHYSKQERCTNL
Protocol: (§1) In the study of cholinesterase inhibitors, the inhibitory effect of the compounds (the NSAIDs and their complexes 1–3) against AChE and BuChE was examined using a modified methodology based on Ellman’s method.
(§2) The ability of the compounds to inhibit AChE and BuChE was evaluated using UV-vis spectroscopy. All the assays were carried out in a 0.1M NaH2PO4/Na2HPO4 buffer at a pH = 7.4. Enzyme solutions were prepared with 2.0 U/mL for AChE and 3.0 U/mL for BuChE. A reaction mixture containing 20 μL of phosphate buffer, 100 μL of DTNB (1-mM), and 40 μL of the enzyme (AChE and BuChE) was incubated with 20 μL of the compounds at various concentrations at 37 °C for 15 min. The reaction was started by the addition of the substrate (20-μL) of ATCI or BTCI solution (1-mM), respectively, and incubation for additional 3 min.
(§3) The enzyme activity was determined by measuring the increase in absorbance at 2-min intervals at 412 nm at 37 °C (ε = 14,150 M^−1cm^−1).
The rate of inhibition of each enzyme by the compounds was calculated according to the following expression:(1) I%=(1−VB/VA)×100 where VB and VA indicate the absorbance measured for ChEs in the presence and absence of inhibitors, respectively. The results are expressed as the average of three repetitions of the tests performed and the standard deviation was less than 3% of the mean. The selectivity index (SI), defined as IC50 BuChE/IC50 AChE, was also calculated. Neostigmine methyl sulfate was used as the appropriate standard.

[3] = system: EB–DNA adduct (CT DNA); test: EB-displacement from EB–DNA adduct (fluorescence emission); assay type: binding, calf; settings: for KSV Stern–Volmer constant (EB–DNA): EB–DNA fluorescence; for relative EB–DNA fluorescence intensity (I/Io, %) remaining: λem = 592 nm, up to, % of the initial EB–DNA fluorescence; for Kq quenching constant of the EB–DNA fluorescence: τo = 23 ns
Protocol: EB-displacement studies: The competition of complexes 1–3 with EB was investigated by fluorescence emission spectroscopy in order to examine whether the complexes can displace EB from its DNA–EB conjugate. The DNA–EB conjugate was prepared by adding 20-μM EB and 26-μM CT DNA in the buffer solution (150-mM NaCl and 15-mM trisodium citrate at pH 7.0). The possible intercalating effect of the complexes was studied by the addition of a certain amount of a solution of the compound into a solution of the DNA–EB conjugate. The influence of each compound to the DNA–EB complex solution was obtained by recording the changes in the fluorescence emission spectra with the excitation wavelength (λex) at 540 nm.
The Stern–Volmer constant KSV is used to evaluate the quenching efficiency for each compound according to the Stern–Volmer equation (Equation (3)), where Io and I are the emission intensities in the absence and the presence of the quencher, respectively, and [Q] is the concentration of the quencher (i.e., complexes 1–3). The value of KSV is obtained from the Stern–Volmer plots by using the slope of the diagram Io/I versus [Q]. Taking τo = 23 ns as the fluorescence lifetime of the EB–DNA system, the EB–DNA quenching constants (Kq, in M^−1s^−1) of the compounds can be determined according to Equation (4).

[4] = target: T2, equine serum butyrylcholinesterase (eqBuChE) (Equus caballus, UniProt P81908); test: Inhibition of butyrylcholinesterase (modified Ellman's method); assay type: biochemical; settings: for BuChE (I%) inhibition rate: 10^−3 M of the compound, pH 7.4, 37 °C; for SI (selectivity index = IBuChE/IAChE): ratio of inhibition rates at 10^−3 M
T2 construct: purchased J&K Scientific Co. (Beijing, China); host or cells: equine serum (by the product's name)
T2 sequence (P81908 whole entry): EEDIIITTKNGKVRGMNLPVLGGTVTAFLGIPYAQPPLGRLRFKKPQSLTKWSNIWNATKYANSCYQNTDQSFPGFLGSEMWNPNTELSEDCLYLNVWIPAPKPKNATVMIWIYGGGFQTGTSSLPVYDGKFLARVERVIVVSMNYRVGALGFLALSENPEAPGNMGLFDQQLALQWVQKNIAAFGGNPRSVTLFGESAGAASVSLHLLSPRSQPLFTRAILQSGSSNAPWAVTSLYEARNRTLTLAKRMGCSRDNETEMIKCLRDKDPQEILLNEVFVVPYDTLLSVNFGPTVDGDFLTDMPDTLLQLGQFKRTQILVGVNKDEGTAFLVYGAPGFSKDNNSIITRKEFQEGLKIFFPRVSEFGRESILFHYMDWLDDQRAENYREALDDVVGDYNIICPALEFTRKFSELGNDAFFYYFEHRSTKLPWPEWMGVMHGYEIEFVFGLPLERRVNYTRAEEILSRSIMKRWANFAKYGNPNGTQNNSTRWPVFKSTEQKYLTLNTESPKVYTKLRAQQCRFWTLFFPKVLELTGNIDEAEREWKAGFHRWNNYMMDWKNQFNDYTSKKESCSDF
Protocol: as §1, §2, §3
The rate of inhibition of each enzyme by the compounds was calculated according to the following expression:(1) I%=(1−VB/VA)×100 where VB and VA indicate the absorbance measured for ChEs in the presence and absence of inhibitors, respectively. […] Neostigmine methyl sulfate was used as the appropriate standard.

[5] = Competition with DMSO for hydroxyl radicals; assay type: biochemical; settings: compound 0.1 mM; 30 min, 37 °C, pH 7.4
Protocol: (§4) The antioxidant activity of complexes 1–3 was evaluated via their ability to scavenge the free radicals DPPH, hydroxyl, and ABTS. Each experiment was performed in triplicate and the standard deviation of absorbance was less than 10% of the mean.
Competition of the tested compounds with DMSO for hydroxyl radicals: The hydroxyl radicals generated by the Fe^3+/ascorbic acid system were detected according to Nash by the determination of formaldehyde produced from the oxidation of DMSO [155]. The reaction mixture contained EDTA (0.1 mM), Fe^3+ (167 μM), DMSO (33 mM) in phosphate buffer (50 mM, pH 7.4), complexes 1–3 (concentration 0.1 mM), and ascorbic acid (10 mM). After a 30-min incubation at 37 °C, the reaction was stopped with CCl3COOH (17% w/v) and the absorbance at λ = 412 nm was measured. Trolox was used as a reference compound. The competition of the compounds with DMSO for •OH, generated by the Fe^3+/ascorbic acid system, expressed as the percentage of inhibition of formaldehyde production, was used for the evaluation of their hydroxyl radical-scavenging activity (OH%).

[6] = ABTS radical cation scavenging; assay type: biochemical; settings: compound 0.1 mM; 1 min after mixing
Protocol: as §4
Assay of radical cation scavenging activity (ABTS^+•): An ABTS cationic radical (ABTS^+•) was produced by reacting an aqueous stock solution (2 mM) of ABTS with 0.17-mM potassium persulfate and allowing the mixture to stand in the dark at room temperature for 12–16 h before use. […] Although the oxidation of ABTS commenced immediately, the absorbance became maximal and stable after 6 h. The radical was stable in this form for more than two days when stored in the dark at room temperature. The ABTS radical solution was diluted with ethanol to an absorbance of 0.70 at 734 nm. After the addition of 10 μL of complexes 1–3 or the standards (0.1 mM) in DMSO, the absorbance was recorded exactly 1 min after initial mixing. The radical scavenging activity of the complexes was expressed as the percentage inhibition of the absorbance of the initial ABTS solution (ABTS%). Trolox was used as a reference compound.

In the case of [Fe3O(dicl)6(py)3]Cl∙py [Complex 2], the solubility [1] is reported as “Soluble in DMSO”, the “AChE (I%) inhibition rate” value [2] is reported as 3.56 ± 0.11% and the “KSV Stern–Volmer constant (EB–DNA)” value [3] is reported as 6.15 (±0.29) × 10^5 M^−1. The “relative EB–DNA fluorescence intensity (I/Io, %) remaining” value [3] was 41.8%, the “Kq quenching constant of the EB–DNA fluorescence” value [3] was 2.68 (±0.56) × 10^13 M^−1s^−1 and the “BuChE (I%) inhibition rate” value [4] was 74.36 ± 1.40%. The “SI (selectivity index = IBuChE/IAChE)” value [4] was 20.89, the “OH% (competition % with DMSO for hydroxyl radical)” value [5] was 87.89 ± 0.84% and the “ABTS% (ABTS radical scavenging activity)” value [6] was 85.39 ± 0.52%.
For “[Fe3O(dicl)6(MeOH)3][FeCl4]·Hdicl·1.5MeOH∙H2O [Complex 3]”, the solubility [1] was “Soluble in DMSO”, the “AChE (I%) inhibition rate” value [2] was 3.55 ± 1.26% and the “KSV Stern–Volmer constant (EB–DNA)” value [3] was 1.53 (±0.51) × 10^6 M^−1. The “ΔI/Io (%) EB–DNA fluorescence quenching” value ([3]; [EB] = 20 μM, [DNA] = 26 μM, λex 540 nm, λem 592 nm) was 74.3%, the “relative EB–DNA fluorescence intensity (I/Io, %) remaining” value [3] was 25.7% and the “Kq quenching constant of the EB–DNA fluorescence” value [3] was 6.66 (±0.23) × 10^13 M^−1s^−1. For the same substance, the “BuChE (I%) inhibition rate” value [4] was 76.65 ± 1.95%, the “SI (selectivity index = IBuChE/IAChE)” value [4] was 21.59 and the “OH% (competition % with DMSO for hydroxyl radical)” value [5] was 94.31 ± 0.78%. The “ABTS% (ABTS radical scavenging activity)” value [6] was 87.72 ± 0.36%.
